Test results reported in patent US9695155B2, “Herbicidal substituted pyrimidinyloxy benzene compounds” (E. I. DU PONT DE NEMOURS AND COMPANY, priority 2013, dated 2017).

How the values were obtained:
barnyardgrass [1] = assay: Test A postemergence; format: in vivo, Echinochloa crus-galli
Method in brief: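 Visual injury scored 0–100 (100 = complete control) against untreated controls about 10 days after treatment in a greenhouse. Test chemicals, formulated with surfactant in non-phytotoxic solvent, were sprayed on soil preemergence or on 2-10 cm, one- to two-leaf plants postemergence.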

barnyardgrass [2] = assay: Test C postemergence; format: in vivo, Echinochloa crus-galli; conditions: for Plant response rating, Barnyardgrass / Barnyardgrass plant response rating: scale 0 to 100 (0 no effect, 100 complete control)
Excerpt: Seeds of plant species selected from blackgrass (Alopecurus myosuroides), Italian ryegrass (Lolium multiflorum), wheat, winter (winter wheat, Triticum aestivum), galium (catchweed bedstraw, Galium aparine), corn (Zea mays), large (Lg) crabgrass (Digitaria sanguinalis), giant foxtail (Setaria faberii), johnsongrass (Sorghum halepense), lambsquarters (Chenopodium album), morningglory (Ipomoea coccinea), yellow nutsedge (Cyperus esculentus), pigweed (Amaranthus retroflexus), ragweed (common ragweed, Ambrosia elatior), soybean (Glycine max), barnyardgrass (Echinochloa crus-galli), oilseed rape (Brassica napus), waterhemp (common waterhemp, Amaranthus rudis), kochia (Kochia scoparia), wild oat (Avena fatua), surinam grass (Brachiaria decumbens), foxtail, green (green foxtail, Setaria viridis), goosegrass (Eleusine indica), bromegrass, downy (downy bromegrass, Bromus tectorum), nightshade (eastern black nightshade, Solanum ptycanthum), cocklebur (common cocklebur, Xanthium strumarium), cupgrass, woolly (woolly cupgrass, Eriochloa villosa), bermudagrass (Cynodon dactylon), sunflower, (common oilseed sunflower, Helianthus annuus), Russian thistle (Salsola kali), and velvetleaf (Abutilon theophrasti) were planted into a blend of loam soil and sand and treated preemergence with test chemicals formulated in a non-phytotoxic solvent mixture which included a surfactant.
At the same time, plants selected from these crop and weed species and also barley, winter (winter barley, Hordeum vulgare), windgrass (Apera spica-venti), chickweed (common chickweed, Stellaria media), deadnettle (henbit deadnettle, Lamium amplexicaule), and canarygrass (littleseed canarygrass, Phalaris minor) were planted in pots containing Redi-Earth® planting medium (Scotts Company, 14111 Scottslawn Road, Marysville, Ohio 43041) comprising spaghnum peat moss, vermiculite, wetting agent and starter nutrients and treated with postemergence applications of test chemicals formulated in the same manner. Plants ranged in height from 2 to 18 cm (1- to 4-leaf stage) for postemergence treatments. Treated plants and controls were maintained in a greenhouse for 13 to 15 days, after which time all species were compared to controls and visually evaluated. Plant response ratings, summarized in Table C, are based on a scale of 0 to 100 where 0 is no effect and 100 is complete control. A dash (-) response means no test result.

yellow nutsedge = assay: Test C postemergence; format: in vivo, Cyperus esculentus; conditions: for Plant response rating, Nutsedge, Yellow / Nutsedge, Yellow plant response rating: scale 0 to 100 (0 no effect, 100 complete control); for Nutsedge, Yellow plant response rating: 31 g ai/ha
Method in brief: (§1)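 Rated visually on 0–100 (100 = complete control) after 13–15 days under glass. Treatments went onto freshly seeded loam/sand soil or onto emerged plants at the 1- to 4-leaf stage, using a surfactant-containing solvent formulation.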

barnyardgrass [3] = assay: Test B flooded paddy test; format: in vivo, Echinochloa crus-galli; conditions: Flood, 250 g ai/ha; 0 to 100 scale where 0 is no effect and 100 is complete control
Method in brief: (§2)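 Post-emergence paddy-water application at the 2-leaf stage, with 3 cm flood kept for the whole test. Response was judged visually relative to controls after 13 to 15 greenhouse days, 0 indicating no effect and 100 complete control.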

johnsongrass = assay: Test C postemergence; format: in vivo, Sorghum halepense; conditions: for Plant response rating, Johnsongrass / Johnsongrass plant response rating: scale 0 to 100 (0 no effect, 100 complete control); for Johnsongrass plant response rating: 31 g ai/ha
Method in brief: as §1

waterhemp = assay: Test C postemergence; format: in vivo, Amaranthus rudis; conditions: for Plant response rating, Waterhemp / Waterhemp plant response rating: scale 0 to 100 (0 no effect, 100 complete control); for Waterhemp plant response rating: 31 g ai/ha
Method in brief: as §1

wild oat = assay: Test C postemergence; format: in vivo, Avena fatua; conditions: for Plant response rating, Oat, Wild / Oat, Wild plant response rating: scale 0 to 100 (0 no effect, 100 complete control); for Oat, Wild plant response rating: 31 g ai/ha
Method in brief: as §1

sedge, umbrella = assay: Test B flooded paddy test; format: in vivo, Cyperus difformis; conditions: Flood, 250 g ai/ha; 0 to 100 scale where 0 is no effect and 100 is complete control
Method in brief: as §2

Italian ryegrass = assay: Test C postemergence; format: in vivo, Lolium multiflorum; conditions: for Plant response rating, Ryegrass, Italian / Ryegrass, Italian plant response rating: scale 0 to 100 (0 no effect, 100 complete control); for Ryegrass, Italian plant response rating: 31 g ai/ha
Method in brief: as §1

velvetleaf = assay: Test C postemergence; format: in vivo, Abutilon theophrasti; conditions: for Plant response rating, Velvetleaf / Velvetleaf plant response rating: scale 0 to 100 (0 no effect, 100 complete control); for Velvetleaf plant response rating: 31 g ai/ha
Method in brief: as §1

pigweed = assay: Test C postemergence; format: in vivo, Amaranthus retroflexus; conditions: for Plant response rating, Pigweed / Pigweed plant response rating: scale 0 to 100 (0 no effect, 100 complete control); for Pigweed plant response rating: 31 g ai/ha
Method in brief: as §1

[4] = 16 g ai/ha, postemergence, 0 is no effect, 100 is complete control
[5] = 125 g ai/ha, postemergence, visual rating
[6] = 31 g ai/ha, postemergence, visual rating, 13 to 15 days
[7] = postemergence, visual rating, 13 to 15 days
[8] = Postemergence, 62 g ai/ha, 13 to 15 days

FCc1cccc(Oc2ncc(Br)cn2)c1-n1cc(C(F)(F)F)cn1 [Compound 120]
Plant response rating, Barnyardgrass (barnyardgrass [1]; 31 g ai/ha, 0 to 100 scale, 0 no effect, 100 complete control): 20 | Plant response rating, Barnyardgrass (barnyardgrass [1]; 125 g ai/ha, 0 to 100 scale where 0 is no effect and 100 is complete control): 80 | Plant response rating (0 to 100), Barnyardgrass (barnyardgrass [2]; [4]): 5 | Plant response rating, Barnyardgrass (barnyardgrass [2]; [5]): 10 | Plant response rating, Barnyardgrass (barnyardgrass [2]; Postemergence, 31 g ai/ha, 13 to 15 days): 5 | Plant response rating, Barnyardgrass (barnyardgrass [2]; Postemergence, 62 g ai/ha): 10 | Plant response rating (0 to 100), Nutsedge, Yellow (yellow nutsedge; [4]): 0 | Plant response rating, Nutsedge, Yellow (yellow nutsedge; [5]): 25 | Plant response rating, Nutsedge, Yellow (yellow nutsedge; Postemergence, 62 g ai/ha): 10 | Plant response rating, Barnyardgrass (barnyardgrass [3]): 0 | Plant response rating (0 to 100), Johnsongrass (johnsongrass; [4]): 0 | Plant response rating, Johnsongrass (johnsongrass; [5]): 10 | Plant response rating, Johnsongrass (johnsongrass; Postemergence, 62 g ai/ha): 5 | Plant response rating (0 to 100), Waterhemp (waterhemp; [4]): 75 | Plant response rating, Waterhemp (waterhemp; [5]): 85 | Plant response rating, Waterhemp (waterhemp; Postemergence, 62 g ai/ha): 80 | Plant response rating (0 to 100), Oat, Wild (wild oat; [4]): 0 | Plant response rating, Oat, Wild (wild oat; [5]): 5 | Plant response rating, Oat, Wild (wild oat; Postemergence, 62 g ai/ha): 5 | Plant response rating, Sedge, Umbrella (sedge, umbrella): 95 | Plant response rating (0 to 100), Ryegrass, Italian (Italian ryegrass; [4]): 0 | Plant response rating, Ryegrass, Italian (Italian ryegrass; [5]): 5 | Plant response rating, Ryegrass, Italian (Italian ryegrass; Postemergence, 62 g ai/ha): 0 | Plant response rating (0 to 100), Velvetleaf (velvetleaf; [4]): 10 | Plant response rating, Velvetleaf (velvetleaf; [5]): 50 | Plant response rating, Velvetleaf (velvetleaf; Postemergence, 62 g ai/ha): 35 | Plant response rating (0 to 100), Pigweed (pigweed; [4]): 40 | Plant response rating, Pigweed (pigweed; [5]): 95 | Plant response rating, Pigweed (pigweed; Postemergence, 62 g ai/ha): 85

Fc1cccc(Oc2ncc(Cl)cn2)c1-n1cc(C2CC2)nn1 [Compound 155]
Plant response rating, Barnyardgrass (barnyardgrass [1]; 1000 g ai/ha, 0 to 100 scale, 0 no effect, 100 complete control): 100 | Plant response rating (0 to 100), Barnyardgrass (barnyardgrass [2]; [4]): 0 | Barnyardgrass plant response rating (barnyardgrass [2]; [6]): 5 | Plant response rating, Barnyardgrass (barnyardgrass [2]; [5]): 10 | Plant response rating, Barnyardgrass (barnyardgrass [2]; Postemergence, 62 g ai/ha): 5 | Plant response rating (0 to 100), Nutsedge, Yellow (yellow nutsedge; [4]): 5 | Nutsedge, Yellow plant response rating (yellow nutsedge; [7]): 5 | Plant response rating, Nutsedge, Yellow (yellow nutsedge; [5]): 5 | Plant response rating, Nutsedge, Yellow (yellow nutsedge; Postemergence, 62 g ai/ha): 5 | Plant response rating, Barnyardgrass (barnyardgrass [3]): 40 | Plant response rating (0 to 100), Johnsongrass (johnsongrass; [4]): 0 | Johnsongrass plant response rating (johnsongrass; [7]): 0 | Plant response rating, Johnsongrass (johnsongrass; [5]): 5 | Plant response rating, Johnsongrass (johnsongrass; Postemergence, 62 g ai/ha): 5 | Plant response rating (0 to 100), Waterhemp (waterhemp; [4]): 45 | Waterhemp plant response rating (waterhemp; [7]): 65 | Plant response rating, Waterhemp (waterhemp; [5]): 98 | Plant response rating, Waterhemp (waterhemp; Postemergence, 62 g ai/ha): 80 | Plant response rating (0 to 100), Oat, Wild (wild oat; [4]): 0 | Oat, Wild plant response rating (wild oat; [7]): 0 | Plant response rating, Oat, Wild (wild oat; [5]): 25 | Plant response rating, Oat, Wild (wild oat; Postemergence, 62 g ai/ha): 5 | Plant response rating, Sedge, Umbrella (sedge, umbrella): 80 | Plant response rating (0 to 100), Ryegrass, Italian (Italian ryegrass; [4]): 0 | Ryegrass, Italian plant response rating (Italian ryegrass; [7]): 0 | Plant response rating, Ryegrass, Italian (Italian ryegrass; [5]): 10 | Plant response rating, Ryegrass, Italian (Italian ryegrass; Postemergence, 62 g ai/ha): 10 | Plant response rating (0 to 100), Velvetleaf (velvetleaf; [4]): 45 | Velvetleaf plant response rating (velvetleaf; [7]): 75 | Plant response rating, Velvetleaf (velvetleaf; [5]): 85 | Plant response rating, Velvetleaf (velvetleaf; Postemergence, 62 g ai/ha): 70 | Plant response rating (0 to 100), Pigweed (pigweed; [4]): 80 | Pigweed plant response rating (pigweed; [7]): 75 | Plant response rating, Pigweed (pigweed; [5]): 98 | Plant response rating, Pigweed (pigweed; Postemergence, 62 g ai/ha): 98

N#Cc1cccc(Oc2ncc(Cl)cn2)c1-n1cc(-n2ccc(C(F)(F)F)n2)cn1 [Compound 284]
Plant response rating, Barnyardgrass (barnyardgrass [1]; 125 g ai/ha, 0 to 100 scale, 0 no effect, 100 complete control): 30 | Plant response rating, Barnyardgrass (barnyardgrass [1]; 500 g ai/ha, 0 to 100 scale where 0 is no effect and 100 is complete control): 90 | Barnyardgrass plant response rating (barnyardgrass [2]; [6]): 10 | Plant response rating, Barnyardgrass (barnyardgrass [2]; [5]): 15 | Plant response rating (0 to 100), Barnyardgrass (barnyardgrass [2]; 250 g ai/ha, postemergence): 15 | Plant response rating, Barnyardgrass (barnyardgrass [2]; [8]): 10 | Nutsedge, Yellow plant response rating (yellow nutsedge; [7]): 0 | Plant response rating, Nutsedge, Yellow (yellow nutsedge; [5]): 0 | Plant response rating (0 to 100), Nutsedge, Yellow (yellow nutsedge; 250 g ai/ha, postemergence): 5 | Plant response rating, Nutsedge, Yellow (yellow nutsedge; [8]): 0 | Plant response rating, Barnyardgrass (barnyardgrass [3]): 0 | Johnsongrass plant response rating (johnsongrass; [7]): 5 | Plant response rating, Johnsongrass (johnsongrass; [5]): 20 | Plant response rating (0 to 100), Johnsongrass (johnsongrass; 250 g ai/ha, postemergence): 20 | Plant response rating, Johnsongrass (johnsongrass; [8]): 5 | Waterhemp plant response rating (waterhemp; [7]): 85 | Plant response rating, Waterhemp (waterhemp; [5]): 98 | Plant response rating (0 to 100), Waterhemp (waterhemp; 250 g ai/ha, postemergence): 100 | Plant response rating, Waterhemp (waterhemp; [8]): 85 | Oat, Wild plant response rating (wild oat; [7]): 5 | Plant response rating, Oat, Wild (wild oat; [5]): 5 | Plant response rating (0 to 100), Oat, Wild (wild oat; 250 g ai/ha, postemergence): 5 | Plant response rating, Oat, Wild (wild oat; [8]): 5 | Plant response rating, Sedge, Umbrella (sedge, umbrella): 85 | Ryegrass, Italian plant response rating (Italian ryegrass; [7]): 5 | Plant response rating, Ryegrass, Italian (Italian ryegrass; [5]): 5 | Plant response rating (0 to 100), Ryegrass, Italian (Italian ryegrass; 250 g ai/ha, postemergence): 5 | Plant response rating, Ryegrass, Italian (Italian ryegrass; [8]): 5 | Velvetleaf plant response rating (velvetleaf; [7]): 15 | Plant response rating, Velvetleaf (velvetleaf; [5]): 30 | Plant response rating (0 to 100), Velvetleaf (velvetleaf; 250 g ai/ha, postemergence): 70 | Plant response rating, Velvetleaf (velvetleaf; [8]): 15 | Pigweed plant response rating (pigweed; [7]): 98 | Plant response rating, Pigweed (pigweed; [5]): 100 | Plant response rating (0 to 100), Pigweed (pigweed; 250 g ai/ha, postemergence): 100 | Plant response rating, Pigweed (pigweed; [8]): 98
